Results from patent publication US9580390B2, “Indazole compounds as kinase inhibitors and method of treating cancer with same” (University Health Network, priority 2011, dated 2017).
Read-outs that look alike come from different tables or passages of the source.

Key:
[1] = test system: colon cancer cells (HCT116); experiment: Cancer cell line growth inhibition (SRB assay); format: cell-based; conditions: Homo sapiens, HCT-116, read-out: Cancer Cell Line GI50 Range HCT116
[2] = test system: ovarian cancer cells (PA-1); experiment: Cancer cell line growth inhibition (SRB assay); format: cell-based; conditions: read-out: Cancer Cell Line GI50 Range PA-1
human PLK4 = target: T1, human PLK4 (Homo sapiens, UniProt O00444); experiment: PLK4 inhibition assay (indirect ELISA); format: biochemical; conditions: 15 μM ATP
T1 construct: amino terminal GST fusion of residues 1-391 of human PLK4; made in house; host or cells: E. coli
T1 sequence (O00444 1-391): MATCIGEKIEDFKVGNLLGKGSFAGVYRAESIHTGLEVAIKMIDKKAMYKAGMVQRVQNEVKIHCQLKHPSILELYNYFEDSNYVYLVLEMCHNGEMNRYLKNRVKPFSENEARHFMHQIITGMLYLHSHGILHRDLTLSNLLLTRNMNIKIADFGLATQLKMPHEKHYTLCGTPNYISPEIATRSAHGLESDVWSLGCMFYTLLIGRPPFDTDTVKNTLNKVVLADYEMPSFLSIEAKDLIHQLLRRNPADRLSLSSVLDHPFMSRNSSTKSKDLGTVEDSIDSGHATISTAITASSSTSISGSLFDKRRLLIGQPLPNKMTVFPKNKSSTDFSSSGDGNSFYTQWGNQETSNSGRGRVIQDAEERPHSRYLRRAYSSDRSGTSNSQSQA
Procedure: Active PLK4 was purified from an E. coli expression system as an amino terminal GST fusion of residues 1-391 of human PLK4. The protein was purified from clarified cell extracts after induction at 15° C. overnight using glutathione sepharose, gel permeation chromatography, and ion exchange (Resource Q). The resulting protein was dephosphorylated with lambda phosphatase (NEB cat# P0753), and resolved from the phosphatase using gluthione sepharose. The dephosphorylated GST-PLK4 was stored in aliquots at −80° C. until use.
PLK4 activity was measured using an indirect ELISA detection system. Dephosphorylated GST-PLK4 (4 nM) was incubated in the presence of 15 μM ATP (Sigma cat# A7699), 50 mM HEPES-[…] pH 7.4, 10 mM MgCl2, 0.01% Brij 35 (Sigma cat# 03-3170), in a 96 well microtitre plate pre-coated with MBP (Millipore cat#30-011). The reaction was allowed to proceed for 30 minutes, followed by 5 washes of the plate with Wash Buffer (50 mM TRIS-Cl pH 7.4 and 0.2% Tween 20), and incubation for 30 minutes with a 1:3000 dilution of primary antibody (Cell Signaling cat# 9381). The plate was washed 5 times with Wash Buffer, incubated for 30 minutes in the presence of secondary antibody coupled to horse radish peroxidase (BioRad cat# 1721019, 1:3000 concentration), washed an additional 5 times with Wash Buffer, and incubated in the presence of TMB substrate (Sigma cat# T0440). The colourimetric reaction was allowed to continue for 5 minutes, followed by addition of stop solution (0.5 N sulphuric acid), and quantified by detection at 450 nm with either a monochromatic or filter based plate reader (Molecular Devices M5 or Beckman DTX880, respectively).
Compound inhibition was determined at either a fixed concentration (10 μM) or at a variable inhibitor concentration (typically 50 μM to 0.1 μM in a 10 point dose response titration). Compounds were pre-incubated in the presence of enzyme for 15 minutes prior to addition of ATP and the activity remaining quantified using the above described activity assay. The % Inhibition of a compound was determined using the following formula: % Inhibition=100×(1−(experimental value−background value)/(high activity control−background value)). The IC50 value was determined using a non-linear 4 point logistic curve fit (XLfit4, IDBS) with the formula: (A+(B/(1+((x/C)^D)))), where A=background value, B=range, C=inflection point, D=curve fit parameter.

human TTK = target: T2, human TTK (Homo sapiens, UniProt P33981); experiment: TTK inhibition assay (indirect ELISA); format: biochemical; conditions: read-out: TTK IC50 Range
T2 construct: amino terminal GST fusion of full length human TTK; purchased Invitrogen
T2 sequence (P33981 1-857): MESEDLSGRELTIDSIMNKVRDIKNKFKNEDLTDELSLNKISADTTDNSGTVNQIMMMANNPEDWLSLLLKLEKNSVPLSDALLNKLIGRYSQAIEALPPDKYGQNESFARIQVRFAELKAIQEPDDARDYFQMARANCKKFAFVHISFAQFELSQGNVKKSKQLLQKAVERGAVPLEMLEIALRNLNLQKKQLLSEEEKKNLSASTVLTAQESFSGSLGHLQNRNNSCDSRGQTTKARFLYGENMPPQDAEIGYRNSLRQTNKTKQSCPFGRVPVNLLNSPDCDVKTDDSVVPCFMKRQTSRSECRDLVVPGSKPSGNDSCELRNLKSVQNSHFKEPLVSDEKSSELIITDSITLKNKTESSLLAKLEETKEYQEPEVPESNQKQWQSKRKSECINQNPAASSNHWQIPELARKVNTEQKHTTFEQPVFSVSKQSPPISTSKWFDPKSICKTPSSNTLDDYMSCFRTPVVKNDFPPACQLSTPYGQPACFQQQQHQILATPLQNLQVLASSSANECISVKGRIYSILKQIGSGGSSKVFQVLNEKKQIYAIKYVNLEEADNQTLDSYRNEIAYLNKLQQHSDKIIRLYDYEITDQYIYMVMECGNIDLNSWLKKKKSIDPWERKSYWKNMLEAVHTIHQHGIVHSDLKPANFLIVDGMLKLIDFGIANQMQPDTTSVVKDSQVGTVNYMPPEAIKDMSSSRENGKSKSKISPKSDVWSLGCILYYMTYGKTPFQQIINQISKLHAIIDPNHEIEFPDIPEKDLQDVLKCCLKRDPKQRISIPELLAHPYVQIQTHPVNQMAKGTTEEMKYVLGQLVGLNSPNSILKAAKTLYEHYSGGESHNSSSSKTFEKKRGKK

[3] = HCT116 colon cancer cells, SRB assay
[4] = PA-1 ovarian cancer cells, SRB assay

Row | GI50 [1, 3] [nM] | GI50 [2, 4] [nM] | IC50 (human PLK4) [nM] | GI50 [1] [nM] | IC50 (human TTK) [nM] | GI50 ([2]; Homo sapiens, PA-1) [nM] | SMILES
1 | < 100 | < 100 | < 50 |  |  |  | CN1CCC(C(NC(=O)c2ccc3[nH]nc(-c4ccc(N5CCOCC5)cc4)c3c2)c2ccccc2)CC1 (stereo not drawn) [Example A85, N-((1-methylpiperidin-4-yl)(phenyl)methyl)-3-(4-morpholinophenyl)-1H-indazole-5-carboxamide]
2 | < 100 | 100 to 500 | < 50 |  |  |  | Cc1ccccc1CC(=O)Nc1ccc2[nH]nc(-c3ccc(OC4CCN(C)CC4)cc3)c2c1 [Example A92, N-(3-(4-(1-Methylpiperidin-4-yloxy)phenyl)-1H-indazol-5-yl)-2-o-tolylacetamide]
3 | < 100 | < 100 | < 50 |  |  |  | O=C(Nc1ccc2[nH]nc(-c3ccc(N4CCC(CO)CC4)cc3)c2c1)C(c1ccsc1)N1CCCC1 (stereo not drawn) [Example A95, N-(3-(4-(4-(hydroxymethyl)piperidin-1-yl)phenyl)-1H-indazol-5-yl)-2-(pyrrolidin-1-yl)-2-(thiophen-3-yl)acetamide]
4 | 100 to 500 | 100 to 500 | < 50 |  |  |  | C[C@@H]1CCCN1[C@@H](C(=O)Nc1ccc2[nH]nc(-c3ccc(N4CCOCC4)cc3)c2c1)c1ccsc1 [Example A97, (R)-2-((R)-2-methylpyrrolidin-1-yl)-N-(3-(4-morpholinophenyl)-1H-indazol-5-yl)-2-(thiophen-3-yl)acetamide]
5 | < 100 | < 100 | < 50 |  |  |  | O=C(Nc1ccc2[nH]nc(-c3ccc(OC4CCN(CCF)CC4)cc3)c2c1)C(c1ccsc1)N1CCCC1 (stereo not drawn) [Example A102, N-(3-(4-((1-(2-fluoroethyl)piperidin-4-yl)oxy)phenyl)-1H-indazol-5-yl)-2-(pyrrolidin-1-yl)-2-(thiophen-3-yl)acetamide]
6 | < 100 | < 100 | < 50 |  |  |  | O=C(NC(c1ccsc1)C1CC1)c1ccc2[nH]nc(-c3ccc(OC4CCN(CCO)CC4)cc3)c2c1 (stereo not drawn) [Example A117, N-(cyclopropyl(thiophen-3-yl)methyl)-3-(4-((1-(2-hydroxyethyl)piperidin-4-yl)oxy)phenyl)-1H-indazole-5-carboxamide]
7 | 100 to 500 | 100 to 500 | < 50 |  |  |  | COCCN1CCC(Oc2ccc(-c3n[nH]c4ccc(C(=O)N[C@H](C)c5ccccc5F)cc34)cc2)CC1 [Example A129, (R)-N-(1-(2-fluorophenyl)ethyl)-3-(4-((1-(2-methoxyethyl)piperidin-4-yl)oxy)phenyl)-1H-indazole-5-carboxamide]
8 | 100 to 500 | 100 to 500 | < 50 |  |  |  | CN1CCC(Oc2ccc(-c3n[nH]c4ccc(NC(=O)C(c5ccccc5)C5CCCC5)cc34)cc2)CC1 (stereo not drawn) [Example A148, 2-cyclopentyl-N-(3-(4-((1-methylpiperidin-4-yl)oxy)phenyl)-1H-indazol-5-yl)-2-phenylacetamide]
9 | 100 to 500 | 100 to 500 | < 50 |  |  |  | COCCN1CCC(Oc2ccc(-c3n[nH]c4ccc(C(=O)NC(c5ccsc5)C5CCCC5)cc34)cc2)CC1 (stereo not drawn) [Example A155, N-(cyclopentyl(thiophen-3-yl)methyl)-3-(4-((1-(2-methoxyethyl)piperidin-4-yl)oxy)phenyl)-1H-indazole-5-carboxamide]
10 | 100 to 500 | > 500 | < 50 |  |  |  | COc1ccccc1C(C(=O)Nc1ccc2[nH]nc(-c3ccc(OC4CCN(C)CC4)cc3)c2c1)C1CCCC1 (stereo not drawn) [Example A156, 2-cyclopentyl-2-(2-methoxyphenyl)-N-(3-(4-((1-methylpiperidin-4-yl)oxy)phenyl)-1H-indazol-5-yl)acetamide]
11 | 100 to 500 | 100 to 500 | < 50 |  |  |  | CN1CCC(Oc2ccc(-c3n[nH]c4ccc(NC(=O)C(c5ccccc5F)C5CCCC5)cc34)cc2)CC1 (stereo not drawn) [Example A162, 2-cyclopentyl-2-(2-fluorophenyl)-N-(3-(4-((1-methylpiperidin-4-yl)oxy)phenyl)-1H-indazol-5-yl)acetamide]
12 |  |  | < 50 | < 100 | < 100 | < 100 | CC(C)[C@H](NC(=O)c1ccc2[nH]nc(-c3ccc(OC4CN(C5COC5)C4)cc3)c2c1)c1ccccc1Cl [Example A296, (S)-N-(1-(2-chlorophenyl)-2-methylpropyl)-3-(4-((1-(oxetan-3-yl)azetidin-3-yl)oxy)phenyl)-1H-indazole-5-carboxamide]
13 |  |  | < 50 |  | < 100 |  | CC(C)(C)CC(NC(=O)c1ccc2[nH]nc(-c3ccc(N4CCN(C5COC5)CC4)cc3)c2c1)c1ccccc1F (stereo not drawn) [Example A308, N-(1-(2-fluorophenyl)-3,3-dimethylbutyl)-3-(4-(4-(oxetan-3-yl)piperazin-1-yl)phenyl)-1H-indazole-5-carboxamide]
14 |  |  | < 50 | < 100 | < 100 | < 100 | O=C(NC(c1ccsc1)C1CCC1)c1ccc2[nH]nc(-c3ccc(OC4CCN(C5COC5)CC4)cc3)c2c1 (stereo not drawn) [Example A331, N-(cyclobutyl(thiophen-3-yl)methyl)-3-(4-((1-(oxetan-3-yl)piperidin-4-yl)oxy)phenyl)-1H-indazole-5-carboxamide]
15 |  |  | < 50 |  | < 100 |  | CCC(CNC(=O)c1ccc2[nH]nc(-c3ccc(OC4CCN(C)CC4)cc3)c2c1)c1ccccc1 (stereo not drawn) [Example A408, 3-(4-((1-methylpiperidin-4-yl)oxy)phenyl)-N-(2-phenylbutyl)-1H-indazole-5-carboxamide]

Row | SMILES | GI50 [1, 3] [nM] | GI50 [2, 4] [nM] | IC50 (human PLK4) [nM] | GI50 [1] [nM] | IC50 (human TTK) [nM] | GI50 ([2]; Homo sapiens, PA-1) [nM]
16 | O=C(N[C@H](c1ccccc1)C1CC1)c1ccc2[nH]nc(-c3ccc(OC4CC5CCC(C4)N5C4COC4)cc3)c2c1 (stereo partly drawn) [Example A336, N-((S)-cyclopropyl(phenyl)methyl)-3-(4-(((1R,3R,5S)-8-(oxetan-3-yl)-8-azabicyclo[3.2.1]octan-3-yl)oxy)phenyl)-1H-indazole-5-carboxamide] |  |  | < 50 | 100 to 500 | < 100 | 100 to 500
17 | CC(C)(C)C[C@H](NC(=O)c1ccc2[nH]nc(-c3ccc(N4C5COCC4CC(O)C5)cc3)c2c1)c1ccccc1 (stereo partly drawn) [Example A426, N-((S)-3,3-dimethyl-1-phenylbutyl)-3-(4-((1R,5S,7R)-7-hydroxy-3-oxa-9-azabicyclo[3.3.1]nonan-9-yl)phenyl)-1H-indazole-5-carboxamide] |  |  | < 50 |  | < 100 | 
